Measurements reported in publication PMC10535624, “Curcuminoid Chalcones: Synthesis, Stability, and New Neuroprotective and Sonosensitising Activities” (Pharmaceuticals, 2023).
Values joined by “and” are separate entries in the source; they are usually repeats but may differ in a detail not shown here. Identical values can stand only once.

Tests used:
[1] = target: AChE (Homo sapiens, UniProt P22303); test: Effect on AChE activity (modified Ellman's method); format: biochemical; settings: samples 3 mM/dm^3 in DMSO, 0.035 mL; mean ± SEM, n = 3
AChE, sequence (P22303 32-614): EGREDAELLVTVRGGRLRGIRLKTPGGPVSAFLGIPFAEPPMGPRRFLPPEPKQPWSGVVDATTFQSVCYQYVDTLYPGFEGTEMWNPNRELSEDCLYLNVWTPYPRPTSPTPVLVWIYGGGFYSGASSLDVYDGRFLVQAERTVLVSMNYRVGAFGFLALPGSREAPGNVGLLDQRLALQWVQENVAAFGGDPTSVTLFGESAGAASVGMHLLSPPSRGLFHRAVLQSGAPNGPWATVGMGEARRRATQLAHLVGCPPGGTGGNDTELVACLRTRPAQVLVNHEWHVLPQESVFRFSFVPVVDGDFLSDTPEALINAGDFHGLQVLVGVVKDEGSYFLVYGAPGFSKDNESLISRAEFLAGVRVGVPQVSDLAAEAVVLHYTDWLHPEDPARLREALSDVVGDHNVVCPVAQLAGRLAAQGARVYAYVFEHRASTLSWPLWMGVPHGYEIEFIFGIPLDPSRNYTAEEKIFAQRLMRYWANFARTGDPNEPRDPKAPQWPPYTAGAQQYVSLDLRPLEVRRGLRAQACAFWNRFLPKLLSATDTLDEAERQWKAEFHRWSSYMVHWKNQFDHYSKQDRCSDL
Source text: Neurodegenerative diseases are associated with the progressive damage of neurons. During the development of these diseases, there is a loss of nerve cells and a deficiency of […], serotonin, and norepinephrine levels. The ability to inhibit acetyl- (AChE) and butyrylcholinesterase (BChE) activities is seen, among others, in organophosphorus compounds, carbamate insecticides, phenoxyacetic pesticides, and hydrogen peroxide, as well as aliphatic ketones with the carbons C4–C9, e.g., 2,5-hexandione. AChE and BChE show differences in their susceptibility to inhibitors, behaviour in situations involving excess substrate, or substrate binding specificity. Unlike, other esterases, both enzymes hydrolyse choline esters at very high speeds. Thus, in our work, the modified Elman’s method was used to investigate the anti-AChE and anti-BChE effects of curcuminoid chalcone.
(§1) The samples were dissolved in DMSO (Sigma D4540) to obtain a concentration of 3 mM/dm^3.
The analysis was performed strictly as described by Studzińska-Sroka et al., except that the volume of the tested samples added to the reaction mixture was 0.035 mL.

[2] = Stress test: strong acid, strong base and neutral degradation (RP-HPLC); format: physicochemical
Description: Several tests were conducted using the ICH guidelines to assess the compound’s stability. In the stress test, two structural isomers of ester-type hybrid compounds were chosen to estimate the structure’s relationship to the compound’s stability. The tested substances were subjected to hydrolysis–solvolysis in neutral, acidic, and alkaline media. As solvents, water, hydrochloric acid, and sodium hydroxide were used in appropriate concentrations.
Reversed-phase HPLC was used to analyse the degree of degradation. Chromatograms were developed with DAD detection at 254 nm, 308 nm (λmax for 2), and 340 nm (λmax for 6). […] .
Then, 2.0 mL samples of the tested solutions (c ~60 µg/mL) were prepared in hydrochloric acid (0.1; 0.01 M) or sodium hydroxide solution (0.1, 0.01 M) and demineralised water. The solutions were transferred to glass vials, encapsulated, and stored in a thermal chamber at 90 °C, 40 °C, or 25 °C. After the appropriate time (Table 1), the samples were cooled, diluted with methanol (1:1), and transferred to the chromatography column.

[3] = tested on: SCC-25 cells; test: Sonodynamic cytotoxicity, MTT test; format: cell-based, human; settings: 40 µM, 8 h, then US 3 min, 3 MHz, 0.8 W/cm^2; MTT 6 h later; compared to untreated cells
[4] = target: T1, catalase (CAT) (Aspergillus niger, UniProt P55303); test: Effect on CAT activity; format: biochemical; settings: samples 3 mM/dm^3 in DMSO, 0.01 mL; mean ± SEM, n = 3
T1 construct: purchased Sigma C3515
T1 sequence (P55303 whole entry): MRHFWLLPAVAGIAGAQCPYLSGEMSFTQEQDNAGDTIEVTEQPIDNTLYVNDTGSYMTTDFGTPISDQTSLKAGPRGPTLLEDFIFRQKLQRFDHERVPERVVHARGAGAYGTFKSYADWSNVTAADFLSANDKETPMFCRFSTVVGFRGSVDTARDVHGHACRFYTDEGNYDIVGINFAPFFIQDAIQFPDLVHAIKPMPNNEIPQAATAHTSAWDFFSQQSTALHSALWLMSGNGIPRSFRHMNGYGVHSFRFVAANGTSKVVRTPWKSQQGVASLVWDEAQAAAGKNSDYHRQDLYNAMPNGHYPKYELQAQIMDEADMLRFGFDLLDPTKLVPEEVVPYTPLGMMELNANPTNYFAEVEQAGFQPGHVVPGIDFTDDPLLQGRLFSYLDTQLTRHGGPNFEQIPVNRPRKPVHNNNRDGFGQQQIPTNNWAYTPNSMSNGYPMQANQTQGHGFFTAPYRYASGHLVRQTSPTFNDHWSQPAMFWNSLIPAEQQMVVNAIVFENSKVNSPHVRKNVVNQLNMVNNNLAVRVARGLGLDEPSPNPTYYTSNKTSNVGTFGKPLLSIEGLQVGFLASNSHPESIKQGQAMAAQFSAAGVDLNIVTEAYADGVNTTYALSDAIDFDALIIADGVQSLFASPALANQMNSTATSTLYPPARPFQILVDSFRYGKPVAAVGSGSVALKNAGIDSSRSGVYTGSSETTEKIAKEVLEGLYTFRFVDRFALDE
Description: as §1
The method used by Watanabe et al. was used with the following modifications. The reaction mixture was composed of 0.02 mL of EDTA solution (56.5 mM), 0.01 mL of ^the sample, 0.02 mL of 3% H2O2 solution (Sigma H1009), and 0.02 mL of catalase solution (4000-fold diluted, Sigma C3515) (all reagents except the tested sample were diluted in TRIS buffer, pH 7.0, 1 mol/dm^3). The volume was completed to 0.31 mL by the same buffer solution. In a blank sample, DMSO (Sigma D4540) replaced the tested sample. The background of the sample was measured in a mixture composed of 0.01 mL of the sample completed to 0.31 mL by the buffer. The absorbance was read at 240 nm directly after the mixing and after 5 min of incubation (room temperature). The decreased absorbance (depletion of H2O2) in the tested and blank samples was compared. The calibration curve was produced using eleven H2O2 solutions (0.5693–5.693 mM/dm^3). The results are expressed in % inhibition and as H2O2 depletion (mmol of depleted H2O2/dm^3 min).

[5] = tested on: SOD2 gene; set-up: method as in PMID 37779412; settings: qRT-PCR ref 35; cited from earlier work
[6] = acidic environment, HCl 0.01 M, 40 °C, 8 h
[7] = alkaline environment, NaOH 0.01 M, 25 °C, 2 h
[8] = neutral environment, H2O, 90 °C, 24 h

## COc1cc(C=CC(=O)c2ccccc2)ccc1OC(=O)C(C)c1ccc(CC(C)C)cc1 (stereo not drawn) [Compound 2, 2-Methoxy-4-(3-oxo-3-phenylprop-1-en-1-yl)phenyl-2-(4-isobutylphenyl)-propionate]
[1]
  AChE % (inhibition): 90.5 ± 4.2%
  AChE, Equivalent Concentration of Reference Compound Magniflorine: 0.34 ± 0.02 µg/mL
  AChE, Equivalent Concentration of Reference Compound Rivastigmine: 0.52 ± 0.02 µg/mL
[2]; H2O, 90 °C, 24 h
  % Decomposition: 24.4%
  Ct: 46.3 µg/mL
[2]; HCl 0.01 M, 40 °C, 8 h
  % Decomposition: 44% and 43.8%
  Ct: 33.7 µg/mL
[2]; HCl 0.1 M, 90 °C, 16 h
  % Decomposition: 91.8%
  Ct: 5.0 µg/mL
[2]; NaOH 0.01 M, 25 °C, 2 h
  % Decomposition: 100%
  Ct: 0 µg/mL
[2]; NaOH 0.1 M, 90 °C, 16 h
  % Decomposition: 100%
  Ct: 0 µg/mL
[2]; [6]
  ICH Classification: very unstable
[2]; [7]
  ICH Classification: extremely unstable
[2]; [8]
  ICH Classification: unstable
[3]
  Reduction of viability of SCC-25 cells, compound combined with US: significantly reduced viability

## COc1ccc(C=CC(=O)c2ccccc2)cc1OC(=O)C(C)c1ccc(CC(C)C)cc1 (stereo not drawn) [Compound 6, 2-Methoxy-5-(3-oxo-3-phenylprop-1-en-1-yl)phenyl-2-(4-isobutylphenyl)-propionate]
[1]
  AChE % (inhibition): 73.7 ± 5.1%
  AChE, Equivalent Concentration of Reference Compound Magniflorine: 0.28 ± 0.02 µg/mL
  AChE, Equivalent Concentration of Reference Compound Rivastigmine: 0.42 ± 0.03 µg/mL
[4]
  CAT Inhibition (%): 41.9 ± 1.2%
  CAT Inhibition of the H2O2 Depletion: 0.15 ± 0.01 mm/dm^3/min
[2]; H2O, 90 °C, 24 h
  % Decomposition: 23.9%
  Ct: 50.9 µg/mL
[2]; HCl 0.01 M, 40 °C, 8 h
  % Decomposition: 18% and 17.8%
  Ct: 49.3 µg/mL
[2]; HCl 0.1 M, 90 °C, 16 h
  % Decomposition: 97.8%
  Ct: 1.5 µg/mL
[2]; NaOH 0.01 M, 25 °C, 2 h
  % Decomposition: 100%
  Ct: 0 µg/mL
[2]; NaOH 0.1 M, 90 °C, 16 h
  % Decomposition: 100%
  Ct: 0 µg/mL
[2]; [6]
  ICH Classification: very unstable
[2]; [7]
  ICH Classification: extremely unstable
[2]; [8]
  ICH Classification: unstable
[5]
  Decrease of expression of the SOD2 gene compared to the control: 65.20%
